This is an account of results in US20220233566A1, “NOVEL CARBONATE COMPOUND HAVING PYRROLOPYRIMIDINE SKELETON OR PHARMACEUTICALLY ACCEPTABLE SALT THEREOF” (TAIHO PHARMACEUTICAL CO., LTD., priority 2019, published 2022).

One series relates to A427. Description: Growth suppression activity to human tumor cell line (Evaluation 3). The following applies: A-427, 72 h; Human lung cancer, A427, 3 days. The series is classed as cell-based. As to the method: (§1) Human tumor cell lines different in type were suspended in mediums, seeded in individual wells of a multi-well plate and cultured. On the day after initiation of culture, serially diluted solutions of a compound were added. Culture was carried out for further 3 days. Cells were counted by a CellTiter-Glo (manufactured by Promega KK) in accordance with the protocol recommended by Promega KK. Cell viability was calculated in accordance with the equation shown below and the concentration (IC50 (nM)) of a compound at which 50% of cell growth is inhibited was obtained.
(§2) T: Intensity of light emitted from a well containing a compound
(§3) C: Intensity of light emitted from a well containing no compound

The subject of the next series is H520. The series is described as above. The series is classed as cell-based. The conditions noted are these: NCI-H520, 72 h; Human lung cancer, H520, 3 days. As for the experimental part: as §1, §2, §3
Series [1] concerns human brain tumor cell line (U-87 MG). Description: Evaluation 1 of antitumor effect and toxicity in mouse (U-87 MG subcutaneous transplant). It is filed as in vivo, BALB/cA Jcl-nu/nu mice. The following applies: oral every day; Comparative Example 2 12 mg/kg/day, Example 1 15.4 mg/kg/day. As to the method: The day of grouping mice was determined Day 0.
IRs of Comparative Example 2-compound administration group and Example 1-compound administration group on the final day of evaluation (Day 6 in Comparative Example 2 and Day 13 in Example 1) are shown in FIG. 1 and BWC versus elapsed days is shown in FIG. 2.

Series [2] has the same test system. Briefly: Combinational effect of compound and temozolomide (TMZ), cell viability (crystal violet). The conditions noted are these: any order (same-day, compound first, TMZ first), Student's t-test. It is filed as cell-based. As for the experimental part:
A human brain tumor cell line (U-87 MG) was suspended in a medium, seeded in individual wells of a multi-well plate and cultured. In the case where two compounds are simultaneously added, both compounds were added on two days after initiation of culture. In the case where addition of the compound of the present invention preceded, a serially diluted solution of the compound was added on the day after initiation of culture and a serially diluted solution of TMZ was added two days after initiation of culture. In the case where addition of TMZ preceded, a serially diluted solution of TMZ was added on the day after initiation of culture and a serially diluted solution of the compound was added on two days after initiation of culture. Day 5 after seeding, cells were fixed with a 25% aqueous solution of glutaraldehyde and stained with a staining fluid (0.05 w/v % crystal violet in 20% methanol). After an extract (0.1 N NaH2PO4: 100% ethanol=1:1) was added and stirred, an absorbance at 540 nm was measured to obtain a cell count. The cell viability was calculated in accordance with the following equation and statistically processed in accordance with a Student's t-test.
T: Absorbance of a well containing TMZ or a compound
C: Absorbance of a well containing neither TMZ nor a compound

In a further series the test system is LN229. Description: Growth suppression activity in human tumor cell line. It is filed as cell-based. The conditions noted are these: LN-229, 72 h; Human brain tumor, LN229, 3 days. As for the experimental part:
(§4) Human tumor cell lines different in type were suspended in mediums, seeded in individual wells of a multi-well plate and cultured. On the day after initiation of culture, serially diluted solutions of a compound were added. Culture was carried out for further 3 days. Cells were counted by a CellTiter-Glo (manufactured by Promega KK) in accordance with the protocol recommended by Promega KK. Cell viability was calculated in accordance with the equation shown below and the concentration (IC50 (μM)) of the compound at which 50% of cell growth is inhibited was obtained.
as §2, §3

A further series has as its system DLD1. The series is described as above. The conditions noted are these: DLD-1, 72 h; Human colorectal cancer, DLD1, 3 days. It is filed as cell-based. As for the experimental part:
as §4, §2, §3

A further series has as its system MOLT4. The series is described as above. It is filed as cell-based. The conditions noted are these: MOLT-4, 72 h; Human hematopoietic organ tumor, MOLT4, 3 days. As to the method: as §4, §2, §3
A further series concerns MIAPACA2. The description is as above. The series is classed as cell-based. The following applies: MIA PaCa-2, 72 h; Human pancreatic cancer, MIAPACA2, 3 days. As to the method:
as §4, §2, §3

The next series concerns H69. The series is described as above. The series is classed as cell-based. The following applies: NCI-H69, 72 h; Human lung cancer, H69, 3 days. As for the experimental part: as §4, §2, §3
Another series deals with CCRFCEM. The description is as above. The following applies: CCRF-CEM, 72 h, Human hematopoietic organ tumor, 3 days. The series is classed as cell-based. As to the method:
as §4, §2, §3

The subject of another series is HCT116. Described as above. It is filed as cell-based. The conditions noted are these: HCT-116, 72 h; Human colorectal cancer, HCT116, 3 days. As to the method: as §4, §2, §3
For a further series, the system named is A172. The series is described as above. The conditions noted are these: A 172, 72 h; Human brain tumor, A172, 3 days. It is filed as cell-based. As to the method:
as §4, §2, §3

The subject of the next series is CFPAC1. The description is as above. The series is classed as cell-based. The conditions noted are these: CFPAC-1, 72 h; Human pancreatic cancer, CFPAC1, 3 days. As for the experimental part: as §4, §2, §3
A further series deals with H1703. The series is described as above. The series is classed as cell-based. The conditions noted are these: NCI-H1703, 72 h; Human lung cancer, H1703, 3 days. As to the method:
as §4, §2, §3

The test system of another series is MV-4-11. The description is as above. The series is classed as cell-based. The conditions noted are these: MV4-11, 72 h; Human hematopoietic organ tumor, MV-4-11, 3 days. As to the method:
as §4, §2, §3

The next series has as its system MKN45. Described as above. It is filed as cell-based. The conditions noted are these: MKN-45, 72 h; Human stomach cancer, MKN45, 3 days. As for the experimental part: as §4, §2, §3
The subject of the next series is HT29. The series is described as above. The following applies: HT-29, 72 h; Human colorectal cancer, HT29, 3 days. It is filed as cell-based. As for the experimental part:
as §4, §2, §3

Series [3] has as its system human brain tumor cell line (U-87 MG). Briefly: Combination use of compound and radiation, cell viability (crystal violet). It is filed as cell-based. The following applies: any order (same-day, compound first, radiation first), Student's t-test. As for the experimental part:
A human brain tumor cell line (U-87 MG) was suspended in a medium, seeded in individual wells of a multi-well plate and cultured. In the case where radiation exposure and addition of a compound are simultaneously carried out, both treatments were carried out on two days after initiation of culture. In the case where addition of a compound preceded radiation exposure, a serially diluted solution of a compound was added on the day after initiation of culture and radiation exposure was carried out on two days after initiation of culture. In the case where radiation exposure preceded addition of a compound, radiation exposure was carried out on the day after initiation of culture and a serially diluted solution of a compound was added on the two days after initiation of culture. Day 5 after seeding, cells were fixed with a 25% aqueous solution of glutaraldehyde and stained with a staining fluid (0.05 w/v % crystal violet in 20% methanol). After an extract (0.1 N NaH2PO4: 100% ethanol=1:1) was added and stirred, an absorbance at 540 nm was measured to obtain a cell count. The cell viability was calculated in accordance with the following equation and statistically processed in accordance with a Student's t-test.
T: Absorbance of a well exposed to radiation or containing a compound
C: Absorbance of a well neither exposed to radiation nor containing a compound

Series [4] in a line: Presence of prodrug in mouse and absorbency (plasma AUC after oral administration). It is filed as in vivo. The conditions noted are these: male, Balb/cA, mouse, 7.6 umol/kg, mice, 7.6 μmol/kg, administered compound itself in plasma, read-out: AUC0-6hr. As to the method: The dosage amounts of the compounds of Comparative Examples 1 to 5 and Examples 1 to 26 are those (mole/10 mL/kg) shown in Tables. Solutions for administration were prepared with an 0.5% aqueous solutions of HPMC so as to satisfy the dosage amounts.
Note that, the “amount of mole/10 mL/kg” means as follows: for example “10 mmol/10 mL/kg” means that 10 mmol of a test compound per body-weight (1 kg) of a mouse was dispersed or dissolved in a solution (10 mL) for administration. The same applies hereinafter.
The solutions for administration prepared above were orally administered to mice (Balb/cA, male) not fasted each by use of an oral administration sonde.
The mice were anesthetized with isoflurane 0.5, 1, 2, 4 and 6 hours after administration and blood was taken from the facial vein by use of a specific needle (animal lancet) and a heparin-coated hematocrit tube.
The blood sampled was immediately centrifuged (13000 rpm, 2 minutes, 4° C.) to prepare the plasma samples. After proteins were removed from the plasma samples, the concentrations of the test compound in the plasma samples were measured by LC/MS/MS.
The value of “area under the curve” (AUC) of drug concentration in blood versus time was calculated using analysis software such as Phoenix (registered trademark) WinNonlin (registered trademark).
In Table 3, “Comparative Example 1” and “Comparative Example 2” represent the “compound (Br form) of Comparative Example 1” and the “compound (I form) of Comparative Example 2”, respectively. In Table 4, “Comparative Example 6” represents the “compound (C1 form) of Comparative Example 6”.

As to `Nc1ncnc2c1c(I)cn2[C@@H]1O[C@H](CO)[C@@H](O)[C@@H]1F` [Comparative Example 2, (2R,3R,4S,5R)-5-(4-amino-5-iodo-7H-pyrrolo[2,3-d]pyrimidin-7-yl)-4-fluoro-2-(hydroxymethyl) tetrahydrofuran-3-ol], the IC50 with A427 amounted to 98 nM; in the series on H520, 29 nM; in the series with LN229, 20 nM; in the series on DLD1, 40 nM; with MOLT4, 10 nM; in the series on MIAPACA2, 40 nM. Besides, the IC50 with H69 came out at 60 nM; in the series with CCRFCEM, 40 nM; in the series with HCT116, 90 nM; in the series with A172 it was 30 nM; in the series with CFPAC1, 50 nM; with H1703, 40 nM. For the same compound, the IC50 in the series on MV-4-11 was 4 nM; in the series with MKN45 it was 130 nM; with HT29 it was 130 nM. The “final day of evaluation (administration continued as long as weight loss was acceptable, until 20% or more)” value in series [1] came out at 6 days. Besides, the “cell viability, combination treatment with TMZ compared to the single treatments” value in series [2] is “significant decrease in cell viability”. Besides, the “cell viability, combination treatment with radiation exposure compared to the single treatments” value in series [3] was “cell viability significantly decreased”. Further, the AUC(0-t) in series [4] worked out at 0.21 µM·h.

By IC50 is commonly meant the concentration needed to halve the response being measured. Higher therefore signals weaker potency in that assay.
